# Test results from ChEMBL document CHEMBL3297712, “Chasing protons: how isothermal titration calorimetry, mutagenesis, and pKa calculations trace the locus of charge in ligand binding to a tRNA-binding enzyme” (J Med Chem, 2014).
# What was measured:
# [1] = Binding affinity to wild-type Zymomonas mobilis TGT overexpressed in Escherichia coli BL21(DE3) by isothermal titration calorimetric analysis
# [2] = Binding affinity to Zymomonas mobilis TGT D102N mutant overexpressed in Escherichia coli BL21(DE3) by isothermal titration calorimetric analysis
# [3] = Binding affinity to Zymomonas mobilis TGT D156N mutant expressed in Escherichia coli Rosetta 2(DE3) by isothermal titration calorimetric analysis
# Zymomonas mobilis [4] = test: Selectivity ratio of Kd for Zymomonas mobilis TGT D156N mutant to Kd for wild-type Zymomonas mobilis TGT
# Zymomonas mobilis [5] = test: Selectivity ratio of Kd for Zymomonas mobilis TGT D102N mutant to Kd for wild-type Zymomonas mobilis TGT
# [6] = Binding affinity to Zymomonas mobilis TGT E235Q mutant overexpressed in Escherichia coli BL21(DE3) by isothermal titration calorimetric analysis
Selectivity ratio (Zymomonas mobilis [4]),Selectivity ratio (Zymomonas mobilis [5]),Compound,Kd [1] [nM],Kd [2] [nM],Kd [3] [nM],Kd [6] [nM]
4,3,CNc1nc2cc3c(=O)[nH]c(N)nc3cc2[nH]1,52.4,146,188,–
–,–,Cc1nc2cc3nc(N)[nH]c(=O)c3cc2[nH]1,288,–,–,–
–,–,Nc1nc2cc3[nH]c(NCCN4CCOCC4)nc3cc2c(=O)[nH]1,35,–,–,1280
–,–,CNc1nc2cc3c(=O)[nH]cnc3cc2[nH]1,411,–,–,–
